According to patent US20170150719A1, “FUNGICIDAL PYRAZOLES AND THEIR MIXTURES” (E I DU PONT DE NEMOURS AND COMPANY, priority 2010, published 2017):

Assays:
[1] = system: Alternaria solani; experiment: Test B: tomato early blight, preventive spray on tomato seedlings, visual disease rating; conditions: for Test B rating (% disease control) / Test B rating (disease control): tomato early blight, 100 = 100% disease control; for Test B rating (% disease control): preventive spray, rating without asterisk; for pest or weed control at 200 µg/mL: Alternaria solani, in Solanum lycopersicum, read-out: Test B rating (disease control); for Test B rating (disease control): 0 = no disease control relative to the controls
[2] = system: Puccinia recondita f. sp. tritici; experiment: Test H: wheat leaf rust, preventive spray on wheat seedlings, visual disease rating; conditions: 100 = 100% disease control; for Test H rating (% disease control) / Test H rating (disease control): wheat leaf rust; for Test H rating (% disease control): preventive spray, rating without asterisk; for pest or weed control at 200 µg/mL: read-out: Test H rating (disease control), wheat leaf rust, sprayed the day before inoculation; for pest or weed control at 200 µg/mL / Test H rating (disease control): 0 = no disease control; for Test H rating (disease control): sprayed the day before inoculation
[3] = system: Phytophthora infestans; experiment: whole plant or invertebrate; type: in vivo; conditions: for Test C rating (% disease control) / Test C rating (disease control): tomato late blight, 100 = 100% disease control; for Test C rating (% disease control): preventive spray, rating without asterisk; for pest or weed control at 200 µg/mL: Phytophthora infestans, in Solanum lycopersicum, read-out: Test C rating (disease control); for Test C rating (disease control): 0 = no disease control relative to the controls
[4] = system: Septoria nodorum; experiment: Test E: Septoria glume blotch, preventive spray on wheat seedlings, visual disease rating; conditions: 100 = 100% disease control; for Test E rating (% disease control): Septoria glume blotch on wheat, preventive spray, rating without asterisk; for pest or weed control at 200 µg/mL: Parastagonospora nodorum, in Triticum aestivum, read-out: Test E rating (disease control), Septoria glume blotch; for pest or weed control at 200 µg/mL / Test E rating (disease control): 0 = no disease control relative to the controls; for Test E rating (disease control): Septoria glume blotch
Description: General protocol for preparing test suspensions for Tests A-I: the test compounds were first dissolved in acetone in an amount equal to 3% of the final volume and then suspended at the desired concentration (in ppm) in acetone and purified water (50/50 mix by volume) containing 250 ppm of the surfactant Trem® 014 (polyhydric alcohol esters). The resulting test suspensions were then used in Tests A-I. Each test was conducted in triplicate, and the results were averaged. Spraying a 200 ppm test suspension to the point of run-off on the test plants was the equivalent of a rate of about 800 g/ha. Unless otherwise indicated, the rating values indicate a 200 ppm test suspension was used. (An asterisk “*” next to the rating value indicates a 40 ppm test suspension was used.)
The test suspension was sprayed to the point of run-off on wheat seedlings. The following day the seedlings were inoculated with a spore suspension of Septoria nodorum (the causal agent of Septoria glume blotch) and incubated in a saturated atmosphere at 24° C. for 48 h, and then moved to a growth chamber at 20° C. for 9 days, after which time visual disease ratings were made.

[5] = system: Botrytis cinerea; experiment: Test A: tomato Botrytis, preventive spray on tomato seedlings, visual disease rating; conditions: 100 = 100% disease control; for Test A rating (% disease control) / Test A rating (disease control): tomato Botrytis; for Test A rating (% disease control): preventive spray, 0 = no control relative to controls, rating without asterisk; for pest or weed control at 200 µg/mL: Botrytis cinerea, in Solanum lycopersicum, read-out: Test A rating (disease control), tomato Botrytis; for pest or weed control at 200 µg/mL / Test A rating (disease control): 0 = no disease control relative to the controls
[6] = system: Blumeria graminis f. sp. tritici; experiment: Test I: wheat powdery mildew, preventive spray on wheat seedlings, visual disease rating; conditions: 100 = 100% disease control; for Test I rating (% disease control) / Test I rating (disease control): wheat powdery mildew; for Test I rating (% disease control): preventive spray, rating without asterisk; for pest or weed control at 200 µg/mL: Blumeria graminis, in Triticum aestivum, read-out: Test I rating (disease control), wheat powdery mildew; for pest or weed control at 200 µg/mL / Test I rating (disease control): 0 = no disease control relative to the controls
[7] = system: Puccinia recondita f. sp. tritici; experiment: Test G: wheat leaf rust, spray after inoculation (curative) on wheat seedlings, visual disease rating; type: in vivo; conditions: 100 = 100% disease control; for Test G rating (% disease control): spray after inoculation, rating without asterisk; for pest or weed control at 200 µg/mL / Test G rating (disease control): sprayed after inoculation, 0 = no disease control
Description: (§1) A hyphen (-) indicates no test results.

[8] = system: Septoria tritici; experiment: Test F: wheat leaf blotch, preventive spray on wheat seedlings, visual disease rating; type: in vivo; conditions: 100 = 100% disease control; for Test F rating (% disease control): preventive spray, rating without asterisk; for pest or weed control at 200 µg/mL: Zymoseptoria tritici; for pest or weed control at 200 µg/mL / Test F rating (disease control): 0 = no disease control relative to the controls
Description: as §1

Row | SMILES | Test B rating (% disease control) [1] | Test H rating (% disease control) [2] | Test C rating (% disease control) [3] | Test E rating (% disease control) [4] | Test A rating (% disease control) [5] | Test I rating (% disease control) [6] | Test G rating (% disease control) [7] | Test F rating (% disease control) [8] | pest or weed control at 200 µg/mL [3] | further results
1 | CCOc1cc(F)c(-c2c(C)nn(C)c2Nc2c(F)cc(F)cc2Cl)c(F)c1 [compound 196] | 100% | 94% | 0% | 95% | 100% | 100% | 0% | 100% | – | –
2 | Cc1nn(C)c(Nc2c(Cl)cc(F)cc2Cl)c1-c1ccc(F)cc1Cl [Compound 138, 4-(2-chloro-4-fluorophenyl)-N-(2,6-dichloro-4-fluorophenyl)-1,3-dimethyl-1H-pyrazol-5-amine] | – | – | – | – | – | – | – | – | 0% | pest or weed control at 200 µg/mL [1]: 66%; pest or weed control at 200 µg/mL [2]: 100%; pest or weed control at 200 µg/mL [4]: 0%; pest or weed control at 200 µg/mL [5]: 100%; pest or weed control at 200 µg/mL [6]: 99%; pest or weed control at 200 µg/mL [7]: 17%; pest or weed control at 200 µg/mL [8]: 100%
3 | Cc1nn(C)c(Nc2ccc(C#N)cc2F)c1-c1c(F)cc(F)cc1F [compound 34] | – | – | – | – | – | – | – | – | – | Test B rating (disease control) [1]: 99%; Test H rating (disease control) [2]: 99%; Test C rating (disease control) [3]: 9%; Test E rating (disease control) [4]: 94%; Test A rating (disease control) [5]: 100%; Test I rating (disease control) [6]: 99%; Test G rating (disease control) [7]: 0%; Test F rating (disease control) [8]: 100%
4 | Cc1nn(C)c(Nc2ccc(C#N)cc2F)c1-c1c(F)cccc1F [compound 59] | – | – | – | – | – | – | – | – | – | Test B rating (disease control) [1]: 94%; Test H rating (disease control) [2]: 98%; Test C rating (disease control) [3]: 0%; Test E rating (disease control) [4]: 73%; Test A rating (disease control) [5]: 99%; Test I rating (disease control) [6]: 98%; Test G rating (disease control) [7]: 9%; Test F rating (disease control) [8]: 100%
5 | Cc1nn(C)c(Nc2c(F)cc(F)cc2Br)c1-c1c(F)cccc1F [Compound 146, N-(2-bromo-4,6-difluorophenyl)-4-(2,6-difluorophenyl)-1,3-dimethyl-1H-pyrazol-5-amine] | – | – | – | – | – | – | – | – | 0% | pest or weed control at 200 µg/mL [1]: 100%; pest or weed control at 200 µg/mL [2]: 98%; pest or weed control at 200 µg/mL [4]: 100%; pest or weed control at 200 µg/mL [6]: 100%; pest or weed control at 200 µg/mL [7]: 74%; pest or weed control at 200 µg/mL [8]: 100%
6 | Cc1nn(C)c(Nc2c(F)cc(Cl)cc2Cl)c1-c1ccc(F)cc1F [Compound 161, N-(2,4-dichloro-6-fluorophenyl)-4-(2,4-difluorophenyl)-1,3-dimethyl-1H-pyrazol-5-amine] | – | – | – | – | – | – | – | – | 0% | Test B rating (disease control) [1]: 99%; Test H rating (disease control) [2]: 100%; Test E rating (disease control) [4]: 100%; Test A rating (disease control) [5]: 100%; Test I rating (disease control) [6]: 100%; Test G rating (disease control) [7]: 100%; Test F rating (disease control) [8]: 99%
7 | COc1ccc(-c2c(C)nn(C)c2Nc2c(F)cc(Cl)cc2F)c(F)c1 [compound 185] | 99% | 99% | 0% | 60% | 100% | 100% | 0% | 100% | – | –
8 | CCOc1cc(F)c(-c2c(C)nn(C)c2Nc2c(Cl)cc(F)cc2Cl)c(F)c1 [compound 200] | 97% | 86% | 31% | 0% | 98% | 79% | 0% | 100% | – | –
9 | Cc1nn(C)c(Nc2c(F)cc(Br)cc2F)c1-c1c(F)cccc1F [Compound 145, N-(4-bromo-2,6-difluorophenyl)-4-(2,6-difluorophenyl)-1,3-dimethyl-1H-pyrazol-5-amine] | – | – | – | – | – | – | – | – | 0% | pest or weed control at 200 µg/mL [1]: 0%; pest or weed control at 200 µg/mL [2]: 28%; pest or weed control at 200 µg/mL [4]: 0%; pest or weed control at 200 µg/mL [5]: 99%; pest or weed control at 200 µg/mL [6]: 90%; pest or weed control at 200 µg/mL [7]: 0%; pest or weed control at 200 µg/mL [8]: 100%
10 | CCOc1ccc(-c2c(C)nn(C)c2Nc2c(Cl)cc(F)cc2Cl)c(F)c1 [compound 192] | 66% | 65% | 0% | 0% | 33% | 35% | 0% | 100% | – | –
11 | COc1ccc(-c2c(C)nn(C)c2Nc2c(F)cc(Cl)cc2Cl)c(F)c1 [compound 191] | 99% | 99% | 0% | 92% | 100% | 99% | 46% | – | – | –
12 | Cc1nn(C)c(Nc2c(Cl)cc(F)cc2Cl)c1-c1c(F)cccc1F [Compound 142, N-(2,6-dichloro-4-fluorophenyl)-4-(2,6-difluorophenyl)-1,3-dimethyl-1H-pyrazol-5-amine] | – | – | – | – | – | – | – | – | 0% | pest or weed control at 200 µg/mL [1]: 96%; pest or weed control at 200 µg/mL [2]: 100%; pest or weed control at 200 µg/mL [4]: 92%; pest or weed control at 200 µg/mL [5]: 100%; pest or weed control at 200 µg/mL [6]: 100%; pest or weed control at 200 µg/mL [7]: 0%; pest or weed control at 200 µg/mL [8]: 100%
13 | Cc1nn(C)c(Nc2c(F)cc(Cl)cc2I)c1-c1ccc(F)cc1F [compound 180] | 100% | 100% | 9% | 99% | 100% | 100% | 98% | 100% | – | –
14 | CCOc1ccc(-c2c(C)nn(C)c2Nc2c(F)cc(Cl)cc2Cl)c(F)c1 [compound 190] | 82% | 96% | 0% | 0% | 100% | 95% | 9% | – | – | –
